Here are results for two compounds from paper PMC5045412, “Inhibition of pro-HGF activation by SRI31215, a novel approach to block oncogenic HGF/MET signaling” (Oncotarget, 2016).

What all share (type): cell-based
Experiment [1] concerns DiFi cells. Description: DiFi cells co-cultured with WI38 fibroblasts, immunoblotting. As to conditions: gefitinib 0.5 μM, WI38 co-culture, SRI 31215 10 μM, JNJ38877605 1 μM. On the procedure:
Figure 7 Fibroblasts protect DiFi cells from EGFRi in an HGF-dependent manner DiFi cells were treated with gefitinib (0.5 μM) alone or were co-cultured with WI38 fibroblasts (FIB) in the absence or the presence of SRI 31215 (10 μM) or JNJ38877605 (1 μM). The DiFi cell lysates were isolated after 4 or 24 hours as indicated and examined for the expression of pERK and total ERK, pEGFR and total EGFR, cleaved PARP, β-catenin gelsolin and β-actin by immunoblotting.
(§1) Immunoblotting was performed using standard procedures. Membranes were blocked with 5% non-fat milk for 1 hour at RT, and incubated with primary antibodies overnight at 4°C. Primary antibodies used were anti-HGF (R&D Systems), anti-MET, anti-p-MET, anti-p-GAB1, anti-p-AKT, anti-p-ERK1/2, anti-vimentin (Cell Signaling Technology), anti-p-STAT3 (Upstate Cell Signaling Solutions), anti-E-cadherin (BD Transduction Laboratories), anti-β-actin (Sigma). Following washing with TBS-T buffer, membranes were incubated with horseradish peroxidase-conjugated secondary antibodies for 1 hour and then washed with TBS-T. Immunoblots were developed using the chemiluminescent detection system with ECL (Amersham). Protein loading was normalized by probing blots for the expression of β-actin.

Experiment [2] deals with RKO cells. Description: Basal, constitutive migration of RKO cells. As to conditions: data not shown. On the procedure:
Cancer cells were seeded in 12-well plates and allowed to reach confluence. Following overnight serum-starvation, a scratch/wound was introduced into the cell monolayer with a sterile tip. Cells were cultured in serum-free media or were treated with recombinant HGF (10 ng/ml) or serum-free conditioned media from fibroblasts (50%) in the presence or absence of SRI 31215 or JNJ 38877605. Images of migrating cells were captured at 0, 12 and 24 hours after the treatment.

The test system of experiment [3] is DiFi cells. Put plainly: Caspase-Glo 3/7 Assay. To be noted: fibroblast conditioned medium, 18h. On the procedure:
Figure 6 Fibroblasts inhibit the proapoptotic activity of EGFRi in an HGF-dependent manner A. and B. DiFi cells were treated with gefitinib (0.5 μM) or cetuximab (0.5 μg/ml) in the absence or the presence of conditioned medium from fibroblasts and SRI 31215 and JNJ 38877605 as indicated. The viability was determined after 72 hours. In B, fibroblast conditioned medium was incubated with anti HGF or anti-IL1β antibodies. C. and D. DiFi cells were treated with gefitinib (C) or cetuximab (D) in the presence of conditioned medium from fibroblasts and inhibitors of HGF/MET signaling as indicated for 18h. Caspase activity was assessed by the Caspase-Glo 3/7 Assay from Promega.
DiFi cells were seeded at a density of 20,000 cells/well in a 96 well plate and were treated with EGFRi in the absence or the presence of SRI 31215 or JNJ 38877605 for 18h. Caspase activity was assessed by the Caspase-Glo 3/7 Assay from Promega following the manufacturer's instructions.

The subject of experiment [4] is HT29 cells. Description: Viability of HT29 cells with EGFR inhibitor. As to conditions: HT29 cells (HGF-), gefitinib 5 μM; SRI 31215 10 μM, JNJ 38877605 1 μM. On the procedure:
(§2) Cell titer-glo luminescent cell viability assay kit was purchased from Promega. […] For clonogenic assay, cells were seeded in 6-well plates at a density of 400 cells per well, serum starved overnight, and treated as indicated. After colony formation (8-12 days), cells were stained with crystal violet and the number of colonies was determined using ImageQuantTL (GE Health Care Life Sciences).
Supplementary Figure S3: Inhibition of HGF/MET signaling sensitizes HGF-producing RKO colon cancer cells to gefitinib. A. RKO cells (HGF+) and B. HT29 (HGF-) cells were treated with gefitinib (5 μM) in the absence or the presence of SRI 31215 (10 μM) or JNJ 38877605 (1 μM) as indicated and viability was determined 24 and 72 hours after treatment. # indicates statistical significance compared to samples treated with gefitinib alone as determined by Students’ t-test (p<0.05).
(also on this page, place not known: www.impactjournals.com/oncotarget/ Oncotarget, Materials 2016 Supplementary (HGF +) (HGF -)) […]

The subject of experiment [5] is Caco2 cells. Description: Response of Caco2 cells to EGFR inhibitors with fibroblast conditioned medium. As to conditions: SRI 31215 10 μM, JNJ 38877605 1 μM; for response to cetuximab in the presence of fibroblast-derived CM: 18Co CM; for fibroblast-mediated resistance to gefitinib: 18Co conditioned medium. On the procedure: Figure 5 Inhibitors of HGF/MET signaling prevent the innate and acquired resistance to cetuximab A. and B. RKO cells were treated with cetuximab (50 μg/ml) (A) of gefitinib (B) alone, or in combination with SRI 31215 (10 μM), JNJ 38877605 (1 μM) or recombinant HAI-1 (20 nM) as indicated and clonogenic growth was monitored as described in Materials and Methods. C. and D. Caco2 cells were treated with cetuximab or gefitinib alone or in the presence of CM from fibroblasts and SRI 31215 (10 μM) or JNJ 38877605 (1 μM) as indicated. #: p<0.05, compared to control (CTRL); NS: not significant.
as §2

Experiment [6] has as its system MET. Description: MET activation and downstream signaling in DU145 cells (immunoblotting). As to conditions: 30 minutes; for fibroblast-induced MET activation and signaling / MET activation induced by active HGF: serum-starved DU145 cells, SRI 31215 10 μM, JNJ 38877605 1 μM; for fibroblast-induced MET activation and signaling: 18Co conditioned media. On the procedure:
Figure 2 SRI 31215 inhibits the crosstalk between tumor cells and fibroblasts A. Inhibition of fibroblast-induced oncogenic signaling in tumor cells by SRI 31215. Serum-starved DU145 cells were treated with recombinant HGF or conditioned media from 18Co cells alone or in the presence of SRI 31215 (10 μM) or JNJ 38877605 (1 μM) for 30 minutes. The levels of pMET, pGab1, pAKT, pERK, and pSTAT3 were determined by immunoblotting. Specific bands for pMET and pGab1 are indicated by asterisks. B. Inhibition of fibroblast-induced cell scattering by SRI 31215. Scattering of DU145 cells was induced with recombinant HGF or with conditioned media from 18Co fibroblasts in the presence of SRI 31215 (10 μM) or JNJ 38877605 (1 μM) as indicated. Images were taken 24 hours after treatment.
as §1
Supplementary Figure S2: Dose-dependent inhibition of fibroblast induced MET activation by SRI 31215. DU145 cells were serum-starved and were treated with conditioned medium from 18Co fibroblasts for 30 minutes in the absence or the presence of increasing concentrations of SRI 31215 as indicated. The levels of pERK1/2, pAKT, pSTAT3 and β-actin were determined by […]
(also on this page, place not known: www.impactjournals.com/oncotarget/ Oncotarget, Materials 2016 Supplementary) […]
Background: Immunoblotting shows a protein as a band on a membrane.

Take `CC1CN(CC2CCN(Cc3ccccc3)CC2)C(=O)N(c2cccc(C(=N)N)c2)C1` (stereo not shown) [SRI 31215, 3-(3-((1-benzylpiperidin-4-yl)methyl)-5-methyl-2-oxotetrahydropyrimidin-1(2H)-yl)benzimidamide]: in experiment [1], the “gefitinib-induced cleavage of PARP in the presence of fibroblasts” value is “restored”; the “prosurvival activity of fibroblasts (EGFR and ERK phosphorylation under gefitinib)” value was “blocked”. Besides, the “basal, constitutive migration” value in experiment [2] is on record as “inhibit”. Moreover, in experiment [3], the “gefitinib-induced activation of caspase 3 and caspase 7 in the presence of fibroblasts” value is on record as “restored”. The “response to EGFRi” value in experiment [4] is given as “did not improve”. In experiment [5], the “response to cetuximab in the presence of fibroblast-derived CM” value was “restored the response” and the “fibroblast-mediated resistance to gefitinib” value is reported as “overcame”. Besides, the “fibroblast-induced ERK1/2, AKT and STAT3 activation” value in experiment [6] (DU145 cells, 18Co conditioned medium, increasing concentrations, dose-dependent) is given as “inhibited”. Moreover, in experiment [6], the “fibroblast-induced MET activation and signaling” value is “prevented”; the “MET activation induced by active HGF” value was “did not prevent”.

`Cn1cc(-c2ccc3nnc(C(F)(F)c4ccc5ncccc5c4)n3n2)cn1` [JNJ 38877605, reference compound]: in experiment [1], the “gefitinib-induced cleavage of PARP in the presence of fibroblasts” value was “restored”; the “prosurvival activity of fibroblasts (EGFR and ERK phosphorylation under gefitinib)” value was “blocked”. Further, the “basal, constitutive migration” value in experiment [2] was “inhibit”. For the same compound, the “gefitinib-induced activation of caspase 3 and caspase 7 in the presence of fibroblasts” value in experiment [3] is listed as “restored”. The “response to EGFRi” value in experiment [4] is listed as “did not improve”. In experiment [5], the “response to cetuximab in the presence of fibroblast-derived CM” value is recorded as “restored the response” and the “fibroblast-mediated resistance to gefitinib” value is reported as “overcame”. Moreover, in experiment [6], the “fibroblast-induced MET activation and signaling” value was “prevented”; the “MET activation induced by active HGF” value was “prevented”.
